Assay results as given in patent US20090247520A1, “INHIBITORS OF ANTIGEN RECEPTOR-INDUCED NF-kappa B ACTIVATION” (The Burnham Institute for Medical Research, priority 2008, published 2009).

Experiments:
IKK-beta = target: T1, IKK-beta (Homo sapiens, UniProt O14920); assay: In vitro kinase assay IKK-beta (HTScan kit); format: biochemical; settings: CID-2858522 up to 8 μM; STS 0.5 μM; IKK inhibitor 10 μM
T1 construct: purchased Cell Signaling, Danvers, Mass
Description: CID-2858522 (8 μM) were tested in in vitro IKK beta (A), PKC beta […] or PKC theta (C) kinase assays using kits. STS (0.5 μM), IKK inhibitor (10 μM) and PKC inhibitor (1 μM) were used as positive controls.
In Vitro Kinase Assays. PKC-beta, PKC-theta and IKK-beta in vitro kinase assays were performed using the HTScan Kinase Assay Kit (Cell Signaling, Danvers, Mass.) according to manufacturer's protocols. A panel of >300 kinases was screened by Ambit, Inc.

c-FLIP processing = assay: PMA/Ionomycin-induced c-FLIP processing in HEK293 cells (immunoblot); format: cell-based; settings: CID-2858522 4 μM, PKC inhibitor 1 μM
Description: FIG. 7. CID-285852 inhibits IKKβ phosphorylation induced by PKC activators. (A) HEK293 cells were cultured in 0.5% FBS medium for 24 h and then treated with CID-2858522 (4 μM) or PKC inhibitor, Bisindolylmaleimide I (1 μM) for 2 hrs followed by PMA/Ionomycin (10 ng/mL; 5 ng/mL) for 2 h. Cell lysates were subjected to immunoprecipitation using anti-CARMA1 antibody and analyzed by immunoblotting with anti-phospho-CARMA1 antibody or anti-CARMA1 antibody. (B-E) HEK293 cells were transfected with plasmids encoding myc-CARMA1 in combination with plasmids encoding various other proteins including Caspase-8 (cys287ala) (B), HA-IKK-γ (C), HA-TAK1 (D), and TRAF6 (E). […] Cell lysates were immunoprecipated using anti-myc antibody and analyzed by immunoblotting using anti-Caspase8 (B), anti-HA (C,D), or anti-TRAF6 (E) antibodies. […] Cell lysates were normalized for protein content and analyzed by immunoblotting using anti-FLIP and anti-alpha-tubulin antibodies. […] Cell lysates were immunoprecipitated using anti-IKK-β and analyzed by immunoblotting using anti-phospho-IKK-β antibody or anti-IKK-β antibody (as loading control). […]
Caspase-8 plays an essential role in antigen receptor-mediated NF-κB activation. […] We then assessed the effects of CID-2858522 on PMA-induced proteolytic processing of c-FLIP, a Caspase-8-mediated event recently shown to be required for antigen receptor mediated NF-κB activation.

[1] = test system: PMA/Ionomycin-stimulated IL-8 production; assay: PMA/Ionomycin-stimulated IL-8 production by HEK293 reporter cells (ELISA); format: cell-based, human
Description: (A) Structures of two hit compounds, CID-2858522 (left) and CID-2998237 (right) are shown; (B, C) 293-NF-κB-luc cells were pretreated for 2 hrs with various concentration of either CID-2858522 (B) or CID-29982387 (C) and then stimulated with TNF (10 ng/mL) or PMA/lonomycin (10 ng/mL; 5 ng/mL) for 16 h. Luciferase activity was measured and data were expressed as a percentage relative to control treatment with DMSO only (mean±SD; n=3). (D) 293-NF-κB-luc cells were pretreated for 2 h with various concentrations of CID-2858522 or CID-2998237, then stimulated with PMA/lonomycin for 16 h. IL-8 release into the medium was measured, expressing data as a percentage relative to control cultures treated with DMSO (mean±SD; n=3). (E) 293-NF-κB-luc cells were pretreated with CID-2858522 and then stimulated with PDBu for 16 h, IL-8 production and NF-κB luciferase activity were measured as above. (F) 293-NF-κB-luc cells were pretreated for 2 h with various concentrations of CID-2858522 or a PKC inhibitor (Bisindolylmaleimide I) at 1 μM followed by PMA/Ionomycin (10 ng/mL) stimulation for 2 h, then p65-DNA-binding activity was measured in nuclear extracts (10 μg protein), expressing data as fold-increase relative to unstimulated cells (mean±SD; n=3).
Lymphokine measurements. Human IL-2 or IL-8 levels in culture medium were measured by Enzyme-Linked Immunosorbent Assays (ELISAs), using BD OptEIA ELISAs (BD Biosciences, San Diego, Calif.), according to the manufacturer's protocol, using 96-well ELISA plates (BD Biosciences) and measuring absorbance within 30 minutes of initiating reactions using a SpectraMax 190 spectrophotometer (Molecular Devices).

TLK1 = target: T2, TLK1 (Homo sapiens, UniProt Q9UKI8); assay: KINOMEscan competition binding assay, TLK1
T2 construct: proprietary tag (Ambit); purchased Ambit, Inc
T2 sequence (Q9UKI8 whole entry): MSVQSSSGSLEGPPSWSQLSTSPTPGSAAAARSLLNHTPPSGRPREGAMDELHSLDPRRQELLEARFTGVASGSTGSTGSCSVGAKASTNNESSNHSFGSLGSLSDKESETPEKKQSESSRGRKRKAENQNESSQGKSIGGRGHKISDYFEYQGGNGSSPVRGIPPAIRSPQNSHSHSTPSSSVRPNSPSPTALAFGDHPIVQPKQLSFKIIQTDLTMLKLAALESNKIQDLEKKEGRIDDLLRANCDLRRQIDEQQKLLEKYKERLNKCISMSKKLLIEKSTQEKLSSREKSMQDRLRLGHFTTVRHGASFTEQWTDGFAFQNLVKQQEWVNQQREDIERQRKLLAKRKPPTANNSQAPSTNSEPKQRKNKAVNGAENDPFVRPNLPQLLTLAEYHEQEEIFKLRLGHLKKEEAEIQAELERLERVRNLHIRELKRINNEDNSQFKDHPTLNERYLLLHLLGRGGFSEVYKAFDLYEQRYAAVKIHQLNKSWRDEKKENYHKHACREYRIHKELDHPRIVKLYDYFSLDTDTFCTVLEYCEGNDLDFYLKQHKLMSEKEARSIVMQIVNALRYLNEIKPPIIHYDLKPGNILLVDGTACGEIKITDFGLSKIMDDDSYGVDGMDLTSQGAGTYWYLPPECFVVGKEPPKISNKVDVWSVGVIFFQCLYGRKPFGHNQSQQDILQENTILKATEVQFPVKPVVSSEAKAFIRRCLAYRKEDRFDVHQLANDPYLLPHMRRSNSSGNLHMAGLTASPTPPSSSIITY
Source text: CID-2858522 is not a potent protein kinase inhibitor. Protein kinases play critical roles in NF-κB activation. PKCs are proximal kinases in the NF-κB pathways activated by PMA/Ionomycin and by T- and B-cell antigen receptors, while the IKKs are distal kinases operating in the terminal segments of these and other NF-κB activation pathways. We therefore tested whether CID-2858522 inhibits members of these kinase families by in vitro kinase assays. For these experiments, we tested PKC-beta and PKC-theta (the PKC family members implicated in TCR/BCR signaling), and IKK-beta (a component of the IKK complex) (FIG. 6). […] In addition to assessing these three kinases by conventional in vitro kinase assays, a kinome screen was performed using a high throughput screening method, KINOMEscan™, which is an active-site dependent competition binding assay in which human kinases of interest are fused to a proprietary tag (Ambit). The amount of kinase bound to an immobilized, active-site directed ligand is measured in the presence and absence of the test compound. […] Thus, CID-2858522 inhibits none of the protein kinases previously implicated in regulating NF-κB.
In Vitro Kinase Assays. PKC-beta, PKC-theta and IKK-beta in vitro kinase assays were performed using the HTScan Kinase Assay Kit (Cell Signaling, Danvers, Mass.) according to manufacturer's protocols. […]

[2] = test system: TNF-α-induced IKK-β phosphorylation; assay: TNF-α-induced IKK-β phosphorylation in HEK293 cells; format: cell-based; settings: 4 μM

T1 sequence (O14920 whole entry): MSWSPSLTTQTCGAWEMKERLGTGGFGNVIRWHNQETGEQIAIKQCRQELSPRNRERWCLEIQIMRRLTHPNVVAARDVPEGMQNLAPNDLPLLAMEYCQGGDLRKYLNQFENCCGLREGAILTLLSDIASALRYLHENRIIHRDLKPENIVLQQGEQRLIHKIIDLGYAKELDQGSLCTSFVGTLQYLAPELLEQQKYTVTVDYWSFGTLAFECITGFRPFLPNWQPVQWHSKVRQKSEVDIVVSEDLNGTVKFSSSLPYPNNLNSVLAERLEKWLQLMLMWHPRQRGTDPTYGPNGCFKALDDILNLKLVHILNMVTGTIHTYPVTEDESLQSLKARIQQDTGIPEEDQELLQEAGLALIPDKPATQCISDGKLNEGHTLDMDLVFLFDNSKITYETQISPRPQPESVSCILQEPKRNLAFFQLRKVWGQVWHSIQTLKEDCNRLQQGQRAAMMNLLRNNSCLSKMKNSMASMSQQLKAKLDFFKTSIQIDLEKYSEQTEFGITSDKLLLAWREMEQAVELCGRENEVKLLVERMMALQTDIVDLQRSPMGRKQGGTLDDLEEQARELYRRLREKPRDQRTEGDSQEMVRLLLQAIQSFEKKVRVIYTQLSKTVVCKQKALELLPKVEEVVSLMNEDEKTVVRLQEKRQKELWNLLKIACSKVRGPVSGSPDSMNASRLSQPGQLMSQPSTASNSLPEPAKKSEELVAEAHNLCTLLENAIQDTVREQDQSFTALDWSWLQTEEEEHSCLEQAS

| Structure (SMILES) | inhibition of IKK-beta kinase activity (IKK-beta) | inhibition of c-FLIP processing (c-FLIP processing) | IC50 ([1]; Homo sapiens) [nM] | concentration at which maximum suppression of IL-8 production is achieved ([1]; PMA/Ionomycin) [µM] | inhibition at 10 µM (TLK1) [%] | inhibition of TNF-α-induced IKK-β phosphorylation [2] |
| --- | --- | --- | --- | --- | --- | --- |
| Cc1ccc2nc(NCCN)c3ncc(C)n3c2c1 [BMS-345541, reference compound] | potent inhibition |  |  |  |  |  |
| CN(C)CCCn1cc(C2=C(c3c[nH]c4ccccc34)C(=O)NC2=O)c2ccccc21 [Bisindolylmaleimide I, reference compound] |  | completely inhibited |  |  |  |  |
| Cc1cc2nc(NCCCO)n(CC(=O)c3cc(C(C)(C)C)c(O)c(C(C)(C)C)c3)c2cc1C [Compound 1, 2-(2-(3-Hydroxypropylamino)-5,6-dimethyl-1H-benzo[d]imidazol-1-yl)-1-(3,5-di-tert-butyl-4-hydroxyphenyl)ethanone] | failed to suppress | not affected | < 100 | 1 | 70 | failed to inhibit |
